Experiment in all cases: CDK inhibition assay (microfluidic LabChip, IC50 format)
In experiment [1] the target is CDK7 CyclinH (Homo sapiens, UniProt P50613). The format is biochemical.
The target of experiment [2] is T1, CDK2-CYCLINA (Homo sapiens, UniProt P24941).
T1 construct: purchased Millipore
The format is biochemical. To be noted: read-out: CDK2 CyclinA IC50.

Experiment [3] addresses T2, CDK9-CYCLINT1 (Homo sapiens, UniProt P50750).
T2 construct: purchased Carna
It is filed as biochemical. To be noted: read-out: CDK9 CyclinT1 IC50.

Experiment [4] deals with CDK1/B (Homo sapiens, UniProt P06493). It is filed as biochemical.
Experiment [5] deals with CDK4-CYCLIND1 (Homo sapiens, UniProt P11802). The note with it: a second value in parentheses for some compounds.
For experiment [6], the target named is T3, CDK6-CYCLIND3 (Homo sapiens, UniProt Q00534).
T3 construct: purchased Carna
It is filed as biochemical. The note with it: Table 4a; read-out: CDK6 CyclinD3 IC50.

Setting [7] is: CDK4 CyclinD1 IC50, Table 4b, lower part.

Data on 16 compounds can be found in patent US20230048132A1, “CYCLIN-DEPENDENT KINASE INHIBITORS” (SPV THERAPEUTICS INC., priority 2018, published 2023).

Molecules are shown by their SMILES. pIC50: −log10 of the molar value. Where “and” joins values, the source holds several entries; their conditions need not be identical. Identical values can stand only once. Like-named read-outs stand apart in the source and are kept apart here.

CDK1/B, sequence (P06493 whole entry, species assumed): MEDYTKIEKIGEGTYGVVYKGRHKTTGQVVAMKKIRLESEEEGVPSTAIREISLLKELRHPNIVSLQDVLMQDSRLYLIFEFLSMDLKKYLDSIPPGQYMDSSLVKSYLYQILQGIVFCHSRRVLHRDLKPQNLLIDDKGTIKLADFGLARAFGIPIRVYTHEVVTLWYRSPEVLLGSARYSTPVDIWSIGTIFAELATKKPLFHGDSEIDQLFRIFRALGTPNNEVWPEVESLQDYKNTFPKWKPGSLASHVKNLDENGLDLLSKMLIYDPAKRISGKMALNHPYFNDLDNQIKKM
CDK1/B, sequence (P14635 whole entry partner, species assumed): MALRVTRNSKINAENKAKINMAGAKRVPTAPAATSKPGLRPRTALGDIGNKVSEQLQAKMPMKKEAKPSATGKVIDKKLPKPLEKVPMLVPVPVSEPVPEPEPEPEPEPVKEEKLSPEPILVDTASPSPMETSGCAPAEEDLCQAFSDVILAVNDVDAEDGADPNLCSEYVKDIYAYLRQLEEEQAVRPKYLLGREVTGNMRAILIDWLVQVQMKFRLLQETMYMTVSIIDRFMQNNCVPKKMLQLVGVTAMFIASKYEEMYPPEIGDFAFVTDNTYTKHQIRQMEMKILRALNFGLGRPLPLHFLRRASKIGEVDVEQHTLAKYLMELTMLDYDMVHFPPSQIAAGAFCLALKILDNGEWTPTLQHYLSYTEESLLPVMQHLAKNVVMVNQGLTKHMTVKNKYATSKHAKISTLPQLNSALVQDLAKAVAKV
CDK4-CYCLIND1, sequence (P11802 whole entry): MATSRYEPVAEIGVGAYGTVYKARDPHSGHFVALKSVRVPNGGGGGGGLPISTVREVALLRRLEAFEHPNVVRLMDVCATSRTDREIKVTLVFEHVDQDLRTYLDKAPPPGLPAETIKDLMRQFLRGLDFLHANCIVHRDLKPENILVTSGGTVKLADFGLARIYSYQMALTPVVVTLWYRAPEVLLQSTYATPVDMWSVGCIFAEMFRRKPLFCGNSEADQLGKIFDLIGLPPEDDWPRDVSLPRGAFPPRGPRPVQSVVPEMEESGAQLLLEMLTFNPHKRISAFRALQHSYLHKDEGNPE
CDK4-CYCLIND1, sequence (P24385 whole entry partner): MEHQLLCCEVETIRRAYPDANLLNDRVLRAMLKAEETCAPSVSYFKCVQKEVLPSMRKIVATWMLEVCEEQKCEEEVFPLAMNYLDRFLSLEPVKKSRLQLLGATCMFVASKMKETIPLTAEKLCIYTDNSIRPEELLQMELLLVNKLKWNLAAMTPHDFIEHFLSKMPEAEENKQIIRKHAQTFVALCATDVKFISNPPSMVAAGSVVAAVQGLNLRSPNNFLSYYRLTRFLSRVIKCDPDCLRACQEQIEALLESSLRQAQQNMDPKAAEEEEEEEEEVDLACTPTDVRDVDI
T2 sequence (P50750 whole entry): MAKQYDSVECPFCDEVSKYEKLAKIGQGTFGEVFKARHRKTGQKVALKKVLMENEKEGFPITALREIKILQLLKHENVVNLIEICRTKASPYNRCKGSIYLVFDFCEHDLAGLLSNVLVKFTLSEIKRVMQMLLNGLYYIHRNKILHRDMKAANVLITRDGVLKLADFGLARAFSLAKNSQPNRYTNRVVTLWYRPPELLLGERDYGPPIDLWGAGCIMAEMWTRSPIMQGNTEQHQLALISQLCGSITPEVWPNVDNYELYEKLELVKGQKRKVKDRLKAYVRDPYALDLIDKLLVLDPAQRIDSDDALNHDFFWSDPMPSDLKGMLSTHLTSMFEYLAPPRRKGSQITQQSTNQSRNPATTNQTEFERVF
T2 sequence (O60563 whole entry partner): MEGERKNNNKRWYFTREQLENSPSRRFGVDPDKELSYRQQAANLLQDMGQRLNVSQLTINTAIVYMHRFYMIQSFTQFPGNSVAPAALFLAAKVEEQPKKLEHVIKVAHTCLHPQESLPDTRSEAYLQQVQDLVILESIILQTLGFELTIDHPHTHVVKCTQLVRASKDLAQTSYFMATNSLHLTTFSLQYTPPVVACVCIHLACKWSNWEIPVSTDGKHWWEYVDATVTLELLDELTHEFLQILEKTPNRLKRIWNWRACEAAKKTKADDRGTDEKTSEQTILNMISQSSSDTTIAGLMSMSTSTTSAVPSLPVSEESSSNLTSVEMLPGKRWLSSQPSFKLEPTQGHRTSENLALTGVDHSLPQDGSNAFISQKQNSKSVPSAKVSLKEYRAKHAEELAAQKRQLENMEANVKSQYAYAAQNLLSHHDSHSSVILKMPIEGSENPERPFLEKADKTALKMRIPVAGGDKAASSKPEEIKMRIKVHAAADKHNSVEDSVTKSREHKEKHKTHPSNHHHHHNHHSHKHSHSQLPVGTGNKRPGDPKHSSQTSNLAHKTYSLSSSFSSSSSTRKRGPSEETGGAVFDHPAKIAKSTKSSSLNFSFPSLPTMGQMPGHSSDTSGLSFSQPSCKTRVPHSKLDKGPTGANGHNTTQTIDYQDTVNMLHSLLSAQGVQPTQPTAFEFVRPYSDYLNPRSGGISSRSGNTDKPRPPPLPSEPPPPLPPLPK
CDK7 CyclinH, sequence (P50613 whole entry): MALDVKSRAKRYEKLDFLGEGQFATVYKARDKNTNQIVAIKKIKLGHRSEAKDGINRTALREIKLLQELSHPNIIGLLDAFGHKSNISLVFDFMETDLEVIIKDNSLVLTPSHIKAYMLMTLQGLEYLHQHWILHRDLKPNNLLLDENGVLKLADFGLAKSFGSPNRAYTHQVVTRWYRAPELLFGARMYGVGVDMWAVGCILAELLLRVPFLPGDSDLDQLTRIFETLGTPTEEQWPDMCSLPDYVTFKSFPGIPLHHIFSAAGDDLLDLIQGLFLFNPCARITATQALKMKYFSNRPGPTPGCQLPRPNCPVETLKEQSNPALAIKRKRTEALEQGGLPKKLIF
CDK7 CyclinH, sequence (P51946 whole entry partner): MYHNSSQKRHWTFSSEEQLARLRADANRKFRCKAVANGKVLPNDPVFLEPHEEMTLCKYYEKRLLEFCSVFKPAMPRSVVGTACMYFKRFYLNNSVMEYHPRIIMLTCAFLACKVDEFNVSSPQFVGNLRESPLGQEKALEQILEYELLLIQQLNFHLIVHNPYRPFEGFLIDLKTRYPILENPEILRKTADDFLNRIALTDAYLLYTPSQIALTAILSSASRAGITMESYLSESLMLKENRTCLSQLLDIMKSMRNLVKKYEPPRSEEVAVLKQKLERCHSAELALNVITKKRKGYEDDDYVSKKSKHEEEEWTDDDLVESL
CDK7 CyclinH, sequence (P51948 whole entry partner): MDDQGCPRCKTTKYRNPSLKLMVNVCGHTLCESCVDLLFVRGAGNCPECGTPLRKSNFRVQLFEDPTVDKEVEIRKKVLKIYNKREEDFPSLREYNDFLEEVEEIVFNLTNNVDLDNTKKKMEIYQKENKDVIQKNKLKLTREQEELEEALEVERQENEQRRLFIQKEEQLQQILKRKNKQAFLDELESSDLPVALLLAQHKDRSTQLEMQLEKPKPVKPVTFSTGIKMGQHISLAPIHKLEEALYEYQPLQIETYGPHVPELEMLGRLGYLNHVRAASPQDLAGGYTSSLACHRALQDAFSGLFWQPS
T3 sequence (Q00534 whole entry): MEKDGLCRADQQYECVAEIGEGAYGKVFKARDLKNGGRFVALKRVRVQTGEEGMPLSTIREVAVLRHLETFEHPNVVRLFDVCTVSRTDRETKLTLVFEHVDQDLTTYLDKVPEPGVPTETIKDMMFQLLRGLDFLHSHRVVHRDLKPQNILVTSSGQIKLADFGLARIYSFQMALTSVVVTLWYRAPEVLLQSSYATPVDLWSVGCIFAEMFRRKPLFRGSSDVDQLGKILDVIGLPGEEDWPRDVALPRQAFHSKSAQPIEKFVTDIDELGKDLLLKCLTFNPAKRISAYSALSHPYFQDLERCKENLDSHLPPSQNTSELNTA
T3 sequence (P30281 whole entry partner): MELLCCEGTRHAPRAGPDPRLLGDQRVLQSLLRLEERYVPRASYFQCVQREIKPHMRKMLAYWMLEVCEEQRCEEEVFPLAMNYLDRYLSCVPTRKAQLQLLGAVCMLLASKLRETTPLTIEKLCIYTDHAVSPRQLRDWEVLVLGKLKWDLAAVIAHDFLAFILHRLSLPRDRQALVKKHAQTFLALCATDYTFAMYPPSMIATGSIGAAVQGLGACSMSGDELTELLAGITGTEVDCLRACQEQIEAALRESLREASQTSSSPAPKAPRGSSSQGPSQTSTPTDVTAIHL

For the compound `O=C1NCC[C@@]12Cc1cnc(Nc3ccc(N4CCN(CCO)CC4)c(F)c3)nc1N(C13CC(C1)C3)C2=O` [Example D99, (S)-8-(bicyclo[1.1.1]pentan-1-yl)-2-((3-fluoro-4-(4-(2-hydroxyethyl)piperazin-1-yl)phenyl)amino)-5,8-dihydro-7H-spiro[pyrido[2,3-d]pyrimidine-6,3′-pyrrolidine]-2′,7-dione], the pIC50 was 5.91 in experiment [1] (Table 4b, lower part); 5.96 in experiment [2] (Table 4b, lower part); 7.55 in experiment [3] (Table 4b, lower part); 5.54 in experiment [4] (Table 4b, lower part); 7.88 in experiment [5] (setting [7]).

For the compound `CN1CC2(C1)CN(c1ccc(Nc3ncc4c(n3)N(C3CCCC3)C(=O)[C@]3(CCNC3=O)C4)cc1F)C2` [Example D101, (S)-8-cyclopentyl-2-((3-fluoro-4-(6-methyl-2,6-diazaspiro[3.3]heptan-2-yl)phenyl)amino)-5,8-dihydro-7H-spiro[pyrido[2,3-d]pyrimidine-6,3′-pyrrolidine]-2′,7-dione], the negative logarithm of the IC50 (pIC50) is 6.79 in experiment [1] (Table 4b, lower part); 7.43 in experiment [2] (Table 4b, lower part); greater than 8.49 in experiment [3] (Table 4b, lower part); 6.78 in experiment [4] (Table 4b, lower part); greater than 8.49 in experiment [5] (setting [7]).

For `CC(C)N1CC2(CN(c3ccc(Nc4ncc5c(n4)N(C4CCCC4)C(=O)[C@]4(CCNC4=O)C5)cc3)C2)C1` [Example D102, (S)-8-cyclopentyl-2-((4-(6-isopropyl-2,6-diazaspiro[3.3]heptan-2-yl)phenyl)amino)-5,8-dihydro-7H-spiro[pyrido[2,3-d]pyrimidine-6,3′-pyrrolidine]-2′,7-dione], the pIC50 in experiment [1] (Table 4b, lower part) was 6.19; in experiment [2] (Table 4b, lower part), 6.90; in experiment [3] (Table 4b, lower part), greater than 8.49; in experiment [4] (Table 4b, lower part) it was 6.33; in experiment [5] (setting [7]) it was greater than 8.49.

With `CN1CCN(C2CCN(c3ccc(Nc4ncc5c(n4)N(C4CCCC4)C(=O)[C@]4(CCNC4=O)C5)cc3F)CC2)CC1` [Example D105, (S)-8-cyclopentyl-2-((3-fluoro-4-(4-(4-methylpiperazin-1-yl)piperidin-1-yl)phenyl)amino)-5,8-dihydro-7H-spiro[pyrido[2,3-d]pyrimidine-6,3′-pyrrolidine]-2′,7-dione], the pIC50 in experiment [1] (Table 4a) was 6.87; in experiment [2] (Table 4a), 7.26; in experiment [3] (Table 4a) it was greater than 8.49; in experiment [4] (Table 4a), 6.76; in experiment [5] (CDK4 CyclinD1 IC50, Table 4a) it was greater than 8.49.

As for `CS(=O)(=O)c1ccc(Nc2ncc3c(n2)N(C2CCCC2)C(=O)[C@]2(CCNC2=O)C3)cc1` [Example D114, (S)-8-cyclopentyl-2-((4-(methylsulfonyl)phenyl)amino)-5,8-dihydro-7H-spiro[pyrido[2,3-d]pyrimidine-6,3′-pyrrolidine]-2′,7-dione], the negative logarithm of the IC50 (pIC50) in experiment [1] (Table 4b, lower part) was 5.78; in experiment [2] (Table 4b, lower part), greater than 8.49; in experiment [3] (Table 4b, lower part) it was greater than 8.49; in experiment [4] (Table 4b, lower part), 7.42; in experiment [5] (setting [7]), greater than 8.49.

As to `O=C1NCC[C@@]12Cc1cnc(Nc3ccc(OCCO)cc3)nc1N(C1CCCC1)C2=O` [Example D116, (S)-8-cyclopentyl-2-((4-(2-hydroxyethoxy)phenyl)amino)-5,8-dihydro-7H-spiro[pyrido[2,3-d]pyrimidine-6,3′-pyrrolidine]-2′,7-dione], the negative-log IC50 (pIC50) was 5.46 in experiment [1] (Table 4b, lower part); 7.50 in experiment [2] (Table 4b, lower part); greater than 8.49 in experiment [3] (Table 4b, lower part); 6.63 in experiment [4] (Table 4b, lower part); greater than 8.49 in experiment [5] (setting [7]).

As for `CS(=O)(=O)N1CCC(Nc2ncc3c(n2)N(C2CCCC2)C(=O)[C@]2(CCNC2=O)C3)CC1` [Example D117, (S)-8-cyclopentyl-2-((1-(methylsulfonyl)piperidin-4-yl)amino)-5,8-dihydro-7H-spiro[pyrido[2,3-d]pyrimidine-6,3′-pyrrolidine]-2′,7-dione], the pIC50 in experiment [1] (Table 4b, lower part) was 6.67; in experiment [2] (Table 4b, lower part), greater than 8.49; in experiment [3] (Table 4b, lower part) it was 8.45; in experiment [4] (Table 4b, lower part) it was 8.35; in experiment [5] (setting [7]) it was greater than 8.49.

With `CS(=O)(=O)N1CCC(Nc2ncc3c(n2)N(C24CC(C2)C4)C(=O)[C@]2(CCNC2=O)C3)CC1` [Example D123, (S)-8-(bicyclo[1.1.1]pentan-1-yl)-2-((1-(methylsulfonyl)piperidin-4-yl)amino)-5,8-dihydro-7H-spiro[pyrido[2,3-d]pyrimidine-6,3′-pyrrolidine]-2′,7-dione], the negative-log IC50 (pIC50) is 6.06 in experiment [1] (Table 4b, lower part); 8.38 in experiment [2] (Table 4b, lower part); 7.71 in experiment [3] (Table 4b, lower part); 7.66 in experiment [4] (Table 4b, lower part); greater than 8.49 in experiment [5] (setting [7]).

For `C[C@]1(O)CC[C@@H](Nc2ncc3c(n2)N(C2CCCC2)C(=O)[C@]2(CCNC2=O)C3)CC1` [Example D126, (S)-8-cyclopentyl-2-(((1s,4R)-4-hydroxy-4-methylcyclohexyl)amino)-5,8-dihydro-7H-spiro[pyrido[2,3-d]pyrimidine-6,3′-pyrrolidine]-2′,7-dione], the pIC50 is less than 5.00 in experiment [1] (Table 4b, lower part); 6.10 in experiment [2] (Table 4b, lower part); 7.60 in experiment [3] (Table 4b, lower part); 5.66 in experiment [4] (Table 4b, lower part); 7.64 in experiment [5] (setting [7]).

With `CN1CCC(c2ccc(Nc3ncc4c(n3)N(C3CCCC3)C(=O)[C@]3(CCNC3=O)C4)cc2)CC1` [Example D135, (S)-8-cyclopentyl-2-((4-(1-methylpiperidin-4-yl)phenyl)amino)-5,8-dihydro-7H-spiro[pyrido[2,3-d]pyrimidine-6,3′-pyrrolidine]-2′,7-dione], the pIC50 in experiment [1] (Table 4b, lower part) is 6.65; in experiment [2] (Table 4b, lower part) it was 7.05; in experiment [3] (Table 4b, lower part) it was 8.37; in experiment [4] (Table 4b, lower part) it was 6.69; in experiment [5] (setting [7]), greater than 8.49.

For the compound `CN(C)CCOc1ccc(Nc2ncc3c(n2)N(C2CCCC2)C(=O)[C@]2(CCNC2=O)C3)nc1` [Example D138, (S)-8-cyclopentyl-2-((5-(2-(dimethylamino)ethoxy)pyridin-2-yl)amino)-5,8-dihydro-7H-spiro[pyrido[2,3-d]pyrimidine-6,3′-pyrrolidine]-2′,7-dione], the pIC50 in experiment [1] (Table 4a) was less than 5.00; in experiment [2] (Table 4a), less than 5.00; in experiment [3] (Table 4a), 6.69; in experiment [4] (Table 4a), less than 5.00; in experiment [5] (CDK4 CyclinD1 IC50, Table 4a), 8.34.

`CC(C)N1CCN(c2ccc(Nc3ncc4c(n3)N(C3CCCC3)C(=O)[C@]3(CCNC3=O)C4)c(F)c2)CC1` [Example D148, (S)-8-cyclopentyl-2-((2-fluoro-4-(4-isopropylpiperazin-1-yl)phenyl)amino)-5,8-dihydro-7H-spiro[pyrido[2,3-d]pyrimidine-6,3′-pyrrolidine]-2′,7-dione]: the pIC50 in experiment [1] (Table 4a) is less than 4.00; in experiment [2] (Table 4a) it was 4.08 and < 5.00; in experiment [3] (Table 4a) it was 5.20 and 6.01; in experiment [6], 5.33; in experiment [4] (Table 4a), less than 5.00; in experiment [5] (CDK4 CyclinD1 IC50, Table 4a) it was 5.90 and 6.73.

As to `CC1CN(c2ccc(Nc3ncc4c(n3)N(C3CCCC3)C(=O)[C@]3(CCNC3=O)C4)cc2)CC(C)N1` (stereo partly drawn) [Example D199, (6S)-8-cyclopentyl-2-((4-(3,5-dimethylpiperazin-1-yl)phenyl)amino)-5,8-dihydro-7H-spiro[pyrido[2,3-d]pyrimidine-6,3′-pyrrolidine]-2′,7-dione], the pIC50 in experiment [1] (Table 4b, lower part) was 6.39; in experiment [2] (Table 4b, lower part), 7.13; in experiment [3] (Table 4b, lower part), 8.43; in experiment [4] (Table 4b, lower part) it was 6.45; in experiment [5] (setting [7]), greater than 8.49.

Regarding `CC1CN(c2ccc(Nc3ncc4c(n3)N(C35CC(C3)C5)C(=O)[C@]3(CCNC3=O)C4)cc2)CC(C)N1` (stereo partly drawn) [Example D200, (6S)-8-(bicyclo[1.1.1]pentan-1-yl)-2-((4-(3,5-dimethylpiperazin-1-yl)phenyl)amino)-5,8-dihydro-7H-spiro[pyrido[2,3-d]pyrimidine-6,3′-pyrrolidine]-2′,7-dione], the pIC50 in experiment [1] (Table 4b, lower part) is 5.42; in experiment [2] (Table 4b, lower part), 5.47; in experiment [3] (Table 4b, lower part), 7.14; in experiment [4] (Table 4b, lower part) it was 5.06; in experiment [5] (setting [7]), 7.40.

As to `CC(C)C1CCN(c2ccc(Nc3ncc4c(n3)N(C3CCCC3)C(=O)[C@]3(CCNC3=O)C4)cc2)CC1` [Example D201, (S)-8-cyclopentyl-2-((4-(4-isopropylpiperidin-1-yl)phenyl)amino)-5,8-dihydro-7H-spiro[pyrido[2,3-d]pyrimidine-6,3′-pyrrolidine]-2′,7-dione], the pIC50 was 5.53 in experiment [1] (Table 4b, lower part); 6.37 in experiment [2] (Table 4b, lower part); 8.11 in experiment [3] (Table 4b, lower part); 5.55 in experiment [4] (Table 4b, lower part); 8.30 in experiment [5] (setting [7]).

For the compound `O=C1NCC[C@@]12Cc1cnc(Nc3ccc(N4CCN(C5CC5)CC4)cc3)nc1N(C1CCCC1)C2=O` [Example D202, (S)-8-cyclopentyl-2-((4-(4-cyclopropylpiperazin-1-yl)phenyl)amino)-5,8-dihydro-7H-spiro[pyrido[2,3-d]pyrimidine-6,3′-pyrrolidine]-2′,7-dione], the pIC50 in experiment [1] (Table 4b, lower part) was 6.56; in experiment [2] (Table 4b, lower part) it was 7.39; in experiment [3] (Table 4b, lower part), less than 5.00; in experiment [4] (Table 4b, lower part) it was 6.53; in experiment [5] (setting [7]) it was greater than 8.49.
